US11666056B2, “Methods and compositions for control of arthropod pests” (GREENLIGHT BIOSCIENCES, INC., priority 2019, dated 2023)

How the values were obtained:
[1] = citric buffer (pH 5.3)
[2] = Measured pH of preservative working solutions and of tested formulations; type: physicochemical
Description: Separate working solutions of sodium benzoate and potassium sorbate are prepared in citric buffer (pH 5.3) and pH is measured as shown in Table 3.
Five formulations (Table 7) using the citric buffer of Example 1A and the preservatives of Example 1B were tested to determine the stability of the trigger nucleic acid molecule (SEQ ID NO: 1) in a) only sucrose (control); b) sucrose with preservatives; c) sucrose and citric buffer; d) sucrose with equal amounts of each preservative in citric buffer; and e) sucrose with sodium benzoate to potassium sorbate in a 1:0.5 ratio in citric buffer.
Four additional formulations were created to test the ability of sodium benzoate alone to protect a dsRNA from degradation. Sodium benzoate was prepared in a solution with a pH of 4.5.

[3] = preservative 50 mg/mL in citric buffer (pH 5.3)

pH ([2]; preservative 100 mg/mL in citric buffer) | Structure (SMILES) | solubility in citric buffer [1] | pH [2, 3] | pH ([2]; preservative 100 mg/mL in ddH2O)
– | C/C=C/C=C/C(=O)[O-].[K+] [Potassium Sorbate] | low solubility | 6.13 | 8.8
5.7 | O=C([O-])c1ccccc1.[Na+] [Sodium Benzoate] | – | 5.47 | –
